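Grown in 96-well plates, cells were treated for 48 hours with each compound at five concentrations. Insufficient inhibition: endpoint recorded as highest concentration tested. GI50: concentration for 50% inhibition of growth.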 The source made the active and inactive calls. Rule as the data show it: active = GI50 up to about 1.1 µM and inactive = higher.
Legend:
Test in all cases: DTP human tumour cell line panel, 48 h
XF498 = system: XF498
A498 = system: A498
M14 = system: M14
KM-20L2 = system: KM-20L2
HCT-15 = system: HCT-15
UACC-257 = system: UACC-257
MOLT-4 = system: MOLT-4
HOP-92 = system: HOP-92
SK-MEL-2 = system: SK-MEL-2
IGROV-1 = system: IGROV-1
K562 = system: K562
786-0 = system: 786-0
SNB-78 = system: SNB-78
LOX IMVI = system: LOX IMVI
SNB-75 = system: SNB-75
OVCAR-5 = system: OVCAR-5
M19-MEL = system: M19-MEL
NCI-H522 = system: NCI-H522
SF-268 = system: SF-268
HT-29 = system: HT-29
KM12 = system: KM12
HCT-116 = system: HCT-116
CAKI-1 = system: CAKI-1
UO-31 = system: UO-31
SN12C = system: SN12C
TK-10 = system: TK-10
DMS-273 = system: DMS-273
SNB-19 = system: SNB-19
HOP-18 = system: HOP-18
COLO 205 = system: COLO 205
DLD-1 = system: DLD-1
ACHN = system: ACHN
OVCAR-8 = system: OVCAR-8
OVCAR-4 = system: OVCAR-4
UACC-62 = system: UACC-62
HCC 2998 = system: HCC 2998
DMS-114 = system: DMS-114
HOP-62 = system: HOP-62
SK-MEL-28 = system: SK-MEL-28
RXF 393 = system: RXF 393
Malme-3M = system: Malme-3M
U-251 = system: U-251
SK-OV-3 = system: SK-OV-3
OVCAR-3 = system: OVCAR-3
RPMI-8226 = system: RPMI-8226
A549 = system: A549
SF-539 = system: SF-539
LXFL 529 = system: LXFL 529
NCI-H23 = system: NCI-H23
SW-620 = system: SW-620
CCRF-CEM = system: CCRF-CEM
SK-MEL-5 = system: SK-MEL-5

## O=C(N/C(=C\c1ccc([N+](=O)[O-])cc1)c1nc2ccccc2s1)c1ccccc1
XF498
  GI50: 44.8 µM (inactive)
A498
  GI50: 31.3 µM (inactive)
M14
  GI50: 31.9 µM (inactive)
KM-20L2
  GI50: 40.7 µM (inactive)
HCT-15
  GI50: 27.2 µM
UACC-257
  GI50: 28.1 µM (inactive)
MOLT-4
  GI50: 19.1 µM (inactive)
HOP-92
  GI50: 23.6 µM (inactive)
SK-MEL-2
  GI50: 23.7 µM (inactive)
IGROV-1
  GI50: 23 µM (inactive)
K562
  GI50: 17.7 µM (inactive)
786-0
  GI50: 18 µM (inactive)
SNB-78
  GI50: 37.4 µM (inactive)
LOX IMVI
  GI50: 20 µM (inactive)
SNB-75
  GI50: 26.7 µM (inactive)
OVCAR-5
  GI50: 54.7 µM (inactive)
M19-MEL
  GI50: 22.9 µM (inactive)
NCI-H522
  GI50: > 10 µM (inactive)
SF-268
  GI50: 20.1 µM (inactive)
HT-29
  GI50: 31.6 µM (inactive)
KM12
  GI50: 22.5 µM (inactive)
HCT-116
  GI50: 27 µM (inactive)
CAKI-1
  GI50: 31 µM (inactive)
UO-31
  GI50: 24.3 µM (inactive)
SN12C
  GI50: 20.9 µM (inactive)
TK-10
  GI50: 22.6 µM (inactive)
DMS-273
  GI50: 35.7 µM (inactive)
SNB-19
  GI50: 32.8 µM (inactive)
HOP-18
  GI50: 18.5 µM (inactive)
COLO 205
  GI50: 58.3 µM (inactive)
DLD-1
  GI50: 19.9 µM (inactive)
ACHN
  GI50: 29.2 µM (inactive)
OVCAR-8
  GI50: 24.6 µM (inactive)
OVCAR-4
  GI50: 29.9 µM (inactive)
UACC-62
  GI50: 20.4 µM (inactive)
HCC 2998
  GI50: 57.4 µM (inactive)
DMS-114
  GI50: 23.3 µM (inactive)
HOP-62
  GI50: 35.6 µM (inactive)
SK-MEL-28
  GI50: 39.5 µM (inactive)
RXF 393
  GI50: 28.6 µM (inactive)
Malme-3M
  GI50: > 100 µM (inactive)
U-251
  GI50: 31.6 µM (inactive)
SK-OV-3
  GI50: > 100 µM (inactive)
OVCAR-3
  GI50: 29.3 µM (inactive)
RPMI-8226
  GI50: 19.2 µM (inactive)
A549
  GI50: 30.7 µM (inactive)
SF-539
  GI50: 23.6 µM (inactive)
LXFL 529
  GI50: 18.8 µM (inactive)
NCI-H23
  GI50: 19.7 µM (inactive)
SW-620
  GI50: 26.7 µM (inactive)
CCRF-CEM
  GI50: 19.1 µM (inactive)
SK-MEL-5
  GI50: 25.7 µM (inactive)

From ChEMBL document CHEMBL1201862, “PubChem BioAssay data set” (2004)
